Tests used:
[1] = system: bone marrow-derived macrophages (BMDMs); experiment: Phagocytosis of cancer cells by bone marrow-derived macrophages in vitro; type: cell-based, mice
Experimental: Specifically, the present inventors prepared bone marrow-derived macrophages (BMDMs) differentiated from excised bone marrow of mice using M-CSF and bone marrow-derived dendritic cells (BMDCs) differentiated from excised bone marrow using Flt3L. The degree of differentiation was confirmed by flow cytometry analysis using antibodies specifically binding to F4/80 (BMDM marker) and CD11c (BMDC marker), respectively (FIGS. 2A and 2B).
The prepared BMDMs and BMDCs were stained with 1 μM CellTracker Deep Red (Thermo Fisher Scientific, USA). 30 μM of Y27632 (Abcam, USA) or 30 μM of fasudil (Selleck Chemicals, USA) was added to each of 15×10^4 cells/ml of the stained macrophages and dendritic cells and incubated at 37° C. for 1 hour. As a negative control, macrophages or dendritic cells that were not incubated with Y27632 and fasudil were used.
Bone marrow-derived macrophages or dendritic cells prepared in RPMI medium and cancer cell lines stained with 1 μM CellTracker CMFDA (Thermo Fisher Scientific, USA) were co-cultured at about 37° C. for about 2 hours. CT26.CL25, a colon cancer cell line, and B16F10-OVA, a melanoma cell line, were used as the cancer cells.
Thereafter, the percentage of cancer cells was measured by flow cytometry, and the phagocytosis ratio of macrophages and dendritic cells against cancer cells was calculated. The results are shown in FIGS. 2C to 2F (left: cancer cell line CT26.CL25, right: cancer cell line B16F10-OVA).
In order to more accurately analyze the phagocytosis of macrophages and dendritic cells against cancer cells according to the treatment of the ROCK inhibitor, the present inventors analyzed phagocytosis of the BMDMs and BMDCs against CT26.CL25 colon cancer cells using the pHrodo-SE dye, which changes in fluorescence depending on pH. When […], the pH of the cancer cells decreased and became red. When treated with Y27632 as described above for the above-mentioned phagocytosis response, the phagocytic activities of both the BMDMs and BMDCs against cancer cells were improved.
The present inventors performed an experiment to confirm how long the phagocytosis of BMDMs and BMDCs against cancer cells due to the ROCK inhibitor is maintained. Specifically, BMDMs and BMDCs were pretreated with Y27632 for 1 hour, then Y27632 was removed, and immediately after 30 minutes, 1 hour, 2 hours, or 4 hours, the phagocytosis against CT26.CL25 and B16F10-Ova was measured using a flow cytometer. The other experimental conditions were the same as in Example 1-1.
In order to confirm whether the ROCK inhibitor increases phagocytosis against cancer cells by acting on phagocytic cells (BMDMs or BMDCs) themselves, Y27632 was used to pretreat the phagocytic cells or cancer cells for 1 hour, and the phagocytic activity was analyzed using the same procedure described in Example 1-1.
The present inventors identified through the above-mentioned results that Y27632 promotes phagocytic cells against cancer cells by inhibiting ROCK in the phagocytic cells. In order to elucidate a more detailed mechanism related to the increase of phagocytic activity by ROCK inhibitors, the present inventors analyzed phagocytosis of the phagocytic cells against cancer cells using blebbistatin (Sigma-Aldrich, USA), which can inhibit the movement of myosin light chain, which exist downstream of ROCK signaling pathway, according to the method described in Example 1-1.
Bone marrow-derived macrophages (BMDMs) treated with 30 μM of fasudil were co-cultured with B16F10-Ova malignant melanoma cells for 1 hour and the phagocytic activity of the BMDMs against apoptotic cancer cells was analyzed by flow cytometry analysis. In order to induce immunogenic apoptosis, 2.5 μM mitoxantrone (Sigma-Aldrich, USA) was administered with B16F10-Ova cells stained with CellTracker Deep Red (Thermo Fisher Scientific, USA) for 4 hours. […]

B16F10-Ova cells = experiment: Annexin V flow cytometry for direct death of cancer cells; type: cell-based, mouse; conditions: 30 μM, 24 hours
Experimental: (§1) Specifically, the present inventors treated CT26.CL25 cells and B16F10-Ova cells with 30 μM of the ROCK inhibitor Y27632 for 24 hours, and performed flow cytometry analysis using FITC-anti-Annexin V antibodies (Abcam, USA). On the other hand, cells were treated with 10 μg of TRAIL, 0.25 μM of doxorubicin, 2.5 μM of doxorubicin, or 25 μM of doxorubicin, respectively, for 4 hours, as positive controls.

CT26.CL25 cells = experiment: as above; type: cell-based, mouse; conditions: 30 μM, 24 hours
Experimental: as §1

CT26 cancer cells = experiment: CT26 tumor model; type: in vivo, mice; conditions: fasudil 20 mg/kg; Y27632 10 mg/kg
Experimental: The same procedure as described above was repeated except that CT26 was used instead of the CT26.CL25 colon cancer cell line and fasudil (Selleck Chemicals, USA) at 20 mg/kg of body weight or Y27632 at 10 mg/kg of body weight was administered.

IFN-γ = IFN-γ ELISA of draining lymph node cells given β-gal peptide; type: in vivo, mice
Experimental: After draining lymph node was isolated from the tumor model animals, 5 μg/ ? of β-gal peptide (TPHPARIGL, SEQ ID NO: 1, including the naturally processed H-2 Ld limited epitope comprising amino acid residue 876 to 884 of β-galactosidase) which simulates β-gal peptide, a model antigen present in CT26.CL25 cells, or PBS were administered and the expression of IFN-γ was measured by IFN-γ ELISA kit (R&D Systems, Inc., USA).

CD103 DCs = experiment: Phagocytosis of cancer cells by dendritic cells excised from tumor tissues; type: in vivo; conditions: compared with CD103 DCs from control mice
Description: The present inventors excised dendritic cells from tumor tissues and analyzed the phagocytosis of dendritic cells against cancer cells in vitro using the same method as described in Example 1-1.

MMTV/Neu mice tumors = experiment: Spontaneous cancer development model; type: in vivo
Experimental: The survival rate was recorded over up to 100 days. When the size of tumor was over 2,500 mm^3, the animal was euthanized (FIG. 20C).
Specifically, fluorescence immunohistochemical analysis was performed using anti-CD8 antibodies in the cancer tissues after the end of the experiment.
Accordingly, the present inventors investigated whether the combination of the drugs can increase the anti-cancer immunity even in the spontaneous cancer development model. […] After completion of the experiment, the present inventors isolated the spleen cells and treated with peptide against rat-Neu, an antigen expressed in the cancer of the spontaneous cancer development model, and after 48 hours, the culture supernatant was collected and IFN-γ was quantified using an ELISA kit (R&D Systems, Inc, USA).

C[C@@H](N)[C@H]1CC[C@H](C(=O)Nc2ccncc2)CC1 [Y27632]
phagocytic ability of macrophages against cancer cells ([1]; 30 μM, 1 hour, co-culture with CT26.CL25 or B16F10-OVA about 2 hours): significantly increased
phagocytic activity of BMDMs against cancer cells (pHrodo-SE dye) ([1]; CT26.CL25 colon cancer cells): improved
phagocytosis by BMDMs against cancer cells, cancer cells pre-treated ([1]; cancer cells pretreated for 1 hour): not increased
phagocytosis against cancer cells, BMDMs pretreated ([1]; phagocytic cells pretreated for 1 hour): increased
time for which BMDMs maintain phagocytosis after the pretreatment ([1]; pretreated 1 hour, then removed, CT26.CL25 and B16F10-Ova): ≤ 1 h
death of cancer cells (Annexin V) (B16F10-Ova cells): not to increase the death of cancer cells
death of cancer cells (Annexin V) (CT26.CL25 cells): not to increase the death of cancer cells
growth of cancer (size of the tumor) (CT26 cancer cells): inhibited the growth of cancer
IFN-γ level in draining lymph node (IFN-γ; PBS liposome-treated group): increased
INF-γ expression in CD8-negative cells of draining lymph node (IFN-γ; mouse, in vivo): no difference in INF-γ expression
amount of IFN-γ in CD8-positive cells of draining lymph node (IFN-γ; mouse, in vivo): increased
phagocytosis against cancer cells of CD103 DCs isolated from treated mice (CD103 DCs): significantly enhanced
anti-cancer immunity (IFN-γ of spleen cells treated with rat-Neu peptide) (MMTV/Neu mice tumors; 48 hours): increased
CD8+ T cells in tumor tissues (infiltration) (MMTV/Neu mice tumors; anti-CD8 fluorescence immunohistochemistry): some T cell infiltration

Reference: patent publication US20190328721A1, “METHOD OF ACTIVATING DENDRITIC CELLS” (KOREA INSTITUTE OF SCIENCE AND TECHNOLOGY, priority 2018, published 2019)
